Paper PMC8773529 (Cancers, 2022)

Tests used:
Assay type in all cases: cell-based, human
LNCaP cells [1] = experiment: LDH test, LNCaP; conditions: 72 h; tested at 10-60 µM, concentration of quoted value not stated
Procedure: (§1) Lactate dehydrogenase (LDH) as a cytosolic enzyme determined in culture medium is a marker of cell death. The LDH activity determination was performed after 72 h incubation of cells (1 × 10^4 cells per well) in 96-well plates with the selected conjugates of gradually decreasing concentration according to the procedure mentioned at earlier study by Chrzanowska et al.. The cytotoxicity of test compounds was expressed as % of LDH released from test cells. This parameter is calculated using the formula: cytotoxicity = [A test sample − A “low control”]/[A “high control” − A “low control”] where: A—absorbance, “Low control”—cells in DMEM medium with 2% FBS, “High control”—cells in DMEM with 2% FBS with 1% Triton X-100.

[2] = test system: IL-6 release by LNCaP cells; experiment: Interleukin-6 ELISA, LNCaP; conditions: IC50 concentration, 72 h; control 40.1 pg/mL
Procedure: (§2) The sandwich ELISA assay is used to confirm the presence of interleukin 6 (IL-6) in the test cell line supernatant. Interleukin IL-6 ELISA kit was purchased from Diaclone SAS (Besancon Cedex, France). […] Before starting the test, a standard curve was prepared. An amount of 100 μL of test supernatant samples from the RWPE-1, LNCaP and DU145 cell lines incubated with the tested compounds, control solutions and blank were added to the plate’s wells. Then, 50 µL of diluted biotinylated anti-human interleukin-6 antibody was added to each well. The prepared plate was incubated at room temperature for one hour. At the end of this time, the solution in the plate wells was decanted and rinsed with the washing solution. After repeating the procedure three times, 100 μL solution of streptavidin covalently bound to horseradish peroxidase (HRP) was added to the wells. Then, the plates were incubated for 30 min. The next step was to remove the solution and rinse the plates three times. After adding 100 μL of tetramethylbenzidine (TMB) solution to each well, the plates were incubated for 15 min in the dark. In order to stop the reaction, 100 μL of H2SO4 solution were added. The absorbance of the tested samples was read using a spectrophotometer at 450 nm (Microplate Spectrophotometer Thermo Scientific™ Multiskan™ GO).

DU-145 cells [3] = experiment: MTT assay, DU-145; conditions: for IC50: MTT, 72 h, mean ± SD; for SI DU-145: SI = IC50 normal cell line (RWPE-1)/IC50 cancer cell line
Procedure: (§3) MTT analysis was performed as described previously.
(§4) Cell absorbance results were substituted into the formula for the relative MTT level (%). It allows to calculate the viability of cells exposed to the test compounds. Cell viability is the percentage of MTT reduction in cells to which the test compounds were added compared to the control sample, where only the medium was added to the cells.
(§5) The relative MTT level was calculated using the formula: life time [100%] = A/B × 100% where: A—the test sample absorbance; B—the control sample absorbance.
(§6) The statistical analysis was performed using the Statistica 13.0 (StatSoft, Inc, Tulsa, OK, USA) program. Comparison between studied groups was performed by the paired Student’s t-test. Results were expressed as means ± SD, and considered statistically significant at p < 0.05. All data were calculated from 3 separate experiments. IC50 values were calculated using GraphPad Prism 6 software (GraphPad Software, San Diego, CA, USA).

DU-145 cells [4] = experiment: Apoptosis detection (Annexin V/7-AAD flow cytometry), DU-145; conditions: IC50 concentration, 72 h, % of cells
Procedure: (§7) Then, a commercially available kit (FITC:Annexin V Apoptosis Detection Kit I; BD Biosciences Pharmingen. San Jose, CA, USA) was used. The medium was removed from the plates and approximately 1 mL of PBS was added to the wells for rinsing, followed by 0.7 mL of trypsin, and left for 3 min. Then, the plate wells were washed twice with 0.5 mL PBS with 2% FBS and next the entire content of the given walls was transferred to test tubes. The tubes were centrifuged for 7 min in a centrifuge at 1700 rpm. The supernatant solution was removed. […] After this time, 0.4 mL of PBS with FBS was added to the tubes and mixed again. […] Annexin V-reactive cells, but not 7-AAD-reactive cells were in the early stage of apoptosis, while cells reactive with both reagents were in late-stage apoptosis or were dead.

LNCaP cells [5] = experiment: MTT assay, LNCaP; conditions: for IC50: 72 h, MTT, mean ± SD; for SI LNCaP: SI = IC50 normal cell line (RWPE-1)/IC50 cancer cell line
Procedure: as §3, §4, §5, §6

[6] = test system: IL-6 release by DU145 cells; experiment: Interleukin-6 ELISA, DU145; conditions: IC50 concentration, 72 h; control 134.475 pg/mL
Procedure: as §2

RWPE-1 cells [7] = experiment: Apoptosis detection (Annexin V/7-AAD flow cytometry), RWPE-1; conditions: IC50 concentration, 72 h, % of cells
Procedure: as §7

RWPE-1 cells [8] = experiment: MTT assay, normal RWPE-1; conditions: mean ± SD
Procedure: as §3, §4, §5, §6

DU145 cells = experiment: LDH test, DU145; conditions: 72 h; tested at 10-60 µM, concentration of quoted value not stated
Procedure: as §1

LNCaP cells [9] = experiment: Apoptosis detection (Annexin V/7-AAD flow cytometry), LNCaP; conditions: IC50 concentration, 72 h, % of cells
Procedure: as §7

PC3 cells = experiment: MTT assay, PC3; conditions: SI = IC50 normal cell line (RWPE-1)/IC50 cancer cell line
Procedure: as §3, §4, §5, §6

| Compound | released lactate dehydrogenase, LNCaP (LNCaP cells [1]) | IL-6 concentration, LNCaP [2] [pg/mL] | IC50 (DU-145 cells [3]; Homo sapiens, DU-145, 72 h) [µM] | IC50 (DU-145 cells [3]) [µM] | Early Apoptosis (%), DU145 (DU-145 cells [4]) [%] | Late apoptosis (%), DU145 (DU-145 cells [4]) [%] | IC50 (LNCaP cells [5]; Homo sapiens, LNCaP) [µM] | IC50 (LNCaP cells [5]) [µM] | IL-6 concentration, DU145 [6] [pg/mL] | Early Apoptosis (%), RWPE-1 (RWPE-1 cells [7]) [%] | Late apoptosis (%), RWPE-1 (RWPE-1 cells [7]) [%] | IC50 (RWPE-1 cells [8]; Homo sapiens, RWPE-1, 72 h) [µM] | released lactate dehydrogenase, DU145 (DU145 cells) | Early Apoptosis (%), LNCaP (LNCaP cells [9]) [%] | Late apoptosis (%), LNCaP (LNCaP cells [9]) | Late apoptosis (%), LNCaP (LNCaP cells [9]; listed as CP) [%] | SI DU-145 (DU-145 cells [3]) | SI LNCaP (LNCaP cells [5]) | IC50 (RWPE-1 cells [8]; 72 h) [µM] | SI PC3 (PC3 cells) |
| --- | --- | --- | --- | --- | --- | --- | --- | --- | --- | --- | --- | --- | --- | --- | --- | --- | --- | --- | --- | --- |
| O=C(O)c1cn(C2CC2)c2cc(N3CCNCC3)c(F)cc2c1=O [Ciprofloxacin] | 18.5–24.6% | 28.7 | > 70 | 70.5 ± 3.6 | 20.8 | 0.3 | > 70 | 71.2 ± 3.8 | 119.72 | 2.9 | 1.4 | 72.1 ± 5.2 | 18.5–24.6% | 26.8 | did not affect the late apoptosis | 0.7 |  |  |  |  |
| N.N.[Cl][Pt][Cl] [Cisplatin] |  |  |  | 1.36 ± 0.69 |  |  |  | 1.78 ± 0.74 |  |  |  |  |  |  |  |  | 2 | 1.5 | 2.69 ± 1.1 | 1.78 |
| COc1cccc2c1C(=O)c1c(O)c3c(c(O)c1C2=O)C[C@@](O)(C(=O)CO)C[C@@H]3O[C@H]1C[C@H](N)[C@H](O)[C@H](C)O1 [Doxorubicin] |  |  | 0.59 ± 0.14 |  |  |  | 0.48 ± 0.21 |  |  |  |  | 0.65 ± 0.1 |  |  |  |  | 1.1 | 1.3 |  | 2 |
